# Legend:
# [1] = system: Mycobacterium tuberculosis H37Rv; assay: Anti-tubercular activity, colorimetric Resazurin Microplate Assay (REMA), H37Rv; type: cell-based; conditions: 192 h, read-out: Anti-tubercular activity against Mycobacterium tuberculosis H37Rv (MIC)
Structure (SMILES),melting point,MIC [1]
"CC1=C(C(=O)N2CCCCC2)C(c2ccc(F)cc2)NC(=S)N1 (stereo not drawn) [DHPM-KN2, (4-(4-Fluorophenyl)-6-methyl-2-thioxo-1,2,3,4-tetrahydropyrimidin-5-yl)(piperidin-1-yl)methanone]",234 °C,–
"CC1=C(C(=O)N2CCCCC2)C(c2ccc([N+](=O)[O-])cc2)NC(=S)N1 (stereo not drawn) [DHPM-KN5, (6-Methyl-4-(4-nitrophenyl)-2-thioxo-1,2,3,4-tetrahydropyrimidin-5-yl)(piperidin-1-yl)methanone]",230 °C,8 µg/mL
"CC1=C(C(=O)N2CCCC2)C(c2ccccc2)NC(=S)N1 (stereo not drawn) [DHPM-KN14, (6-Methyl-4-phenyl-2-thioxo-1,2,3,4-tetrahydropyrimidin-5-yl)(pyrrolidin-1-yl)methanone]",198 °C,–
"CC1=C(C(=O)N2CCCCC2)C(c2ccc(Br)cc2)NC(=S)N1 (stereo not drawn) [DHPM-KN6, (4-(4-Bromophenyl)-6-methyl-2-thioxo-1,2,3,4-tetrahydropyrimidin-5-yl)(piperidin-1-yl)methanone]",258 °C,> 64 µg/mL
"CC1=C(C(=O)N2CCCCC2)C(c2ccc(Cl)cc2)NC(=S)N1 (stereo not drawn) [DHPM-KN9, (4-(4-Chlorophenyl)-6-methyl-2-thioxo-1,2,3,4-tetrahydropyrimidin-5-yl)(piperidin-1-yl)methanone]",218 °C,–
"CC1=C(C(=O)N2CCCCC2)C(c2ccc(C(F)(F)F)cc2)NC(=S)N1 (stereo not drawn) [DHPM-KN10, (6-Methyl-2-thioxo-4-(4-(trifluoromethyl)phenyl)-1,2,3,4-tetrahydropyrimidin-5-yl)(piperidin-1-yl)methanone]",172 °C,128 µg/mL
"CC1=C(C(=O)N2CCCCC2)C(c2ccc(O)cc2)NC(=S)N1 (stereo not drawn) [DHPM-KN11, (4-(4-Hydroxyphenyl)-6-methyl-2-thioxo-1,2,3,4-tetrahydropyrimidin-5-yl)(piperidin-1-yl)methanone]",274 °C,–
"COC(=O)C1=C(C)NC(=S)NC1c1ccc(C(F)(F)F)cc1 (stereo not drawn) [DHPM-KN3, Methyl 6-methyl-2-thioxo-4-(4-(trifluoromethyl)phenyl)-1,2,3,4-tetrahydropyrimidine-5-carboxylate]",190 °C,–
"COc1ccc(C2NC(=S)NC(C)=C2C(=O)N2CCCCC2)cc1 (stereo not drawn) [DHPM-KN7, (4-(4-Methoxyphenyl)-6-methyl-2-thioxo-1,2,3,4-tetrahydropyrimidin-5-yl)(piperidin-1-yl)methanone]",124 °C,> 64 µg/mL
"COC(=O)C1=C(C)NC(=O)NC1c1ccc([N+](=O)[O-])cc1[N+](=O)[O-] (stereo not drawn) [DHPM-KN4, Methyl 4-(2,4-dinitrophenyl)-6-methyl-2-oxo-1,2,3,4-tetrahydropyrimidine-5-carboxylate]",210 °C,16 µg/mL
"CC1=C(C(=O)N2CCCCC2)C(c2ccccc2C)NC(=S)N1 (stereo not drawn) [DHPM-KN8, (6-Methyl-2-thioxo-4-(o-tolyl)-1,2,3,4-tetrahydropyrimidin-5-yl)(piperidin-1-yl)methanone]",260 °C,128 µg/mL
"CC1=C(C(=O)N2CCCCC2)C(c2ccc(O)c(O)c2)NC(=S)N1 (stereo not drawn) [DHPM-KN13, (4-(3,4-Dihydroxyphenyl)-6-methyl-2-thioxo-1,2,3,4-tetrahydropyrimidin-5-yl)(piperidin-1-yl)methanone]",173 °C,–
"CC1=C(C(=O)N2CCCCC2)C(c2ccccc2)NC(=S)N1 (stereo not drawn) [DHPM-KN1, (6-Methyl-4-phenyl-2-thioxo-1,2,3,4-tetrahydropyrimidin-5-yl)(piperidin-1-yl)methanone]",240 °C,16 µg/mL
"CC1=C(C(=O)N2CCCCC2)C(c2ccccc2O)NC(=S)N1 (stereo not drawn) [DHPM-KN12, (4-(2-Hydroxyphenyl)-6-methyl-2-thioxo-1,2,3,4-tetrahydropyrimidin-5-yl)(piperidin-1-yl)methanone]",223 °C,–

# From patent US11912683B1 (priority 2023, dated 2024)
